Converted amounts (≈) assume the structure as drawn. Like-named read-outs stand apart in the source and are kept apart here.
How the values were obtained:
Calu-6 = experiment: Cancer cell proliferation, Alamar Blue assay, 72 hours; format: cell-based; settings: Homo sapiens, Calu-6
Method: (§1) The ability of the compounds described herein to kill or inhibit the proliferation of cancer cells was measured using either the MTT assay, or the Alamar Blue assay, or the Cell Titer Glow® assay using 48 or 72 hours exposure. […] The procedures are briefly described below. Cells of the desired tumor cell line were plated at 2×10^5 cells/ml in 96 well plates. Twice the indicated concentrations of the compounds of the invention were added to cells the following day in an equal volume of media. 72 hours later, cells were lysed and subjected to ATP determination using the CellTiter Glo-Luminescent Cell Viability Assay kit (Promega, Madison, Wis.). Experiments were done in triplicate. When using the MTT assay or the Alamar blue assay, the experimental conditions are essentially similar; at the end of the incubation period, 20 microliters of the MTT solution is added per well and the samples are incubated for an additional four hours, rinsed, and the absorbance at 570 nm measured. […] Table 2 lists the IC50 values for the compounds of the invention in several cell lines including Jurkat, Calu-6, NCI-H82, U937, HCT-116, and MDA-MB-231 cancer cell lines.

Jurkat = experiment: as above; format: cell-based; settings: Homo sapiens, Jurkat
Method: as §1

NCI-H82 = experiment: as above; format: cell-based; settings: Homo sapiens, NCI-H82, read-out: IC50 NCl-H82
Method: as §1

MDA-MB-231 = experiment: as above; format: cell-based; settings: Homo sapiens
Method: as §1

HCT-116 = experiment: as above; format: cell-based; settings: Homo sapiens, HCT-116
Method: as §1

U937 = experiment: as above; format: cell-based; settings: Homo sapiens, U-937
Method: as §1

[1] = Cell permeability in Caco2 monolayers; format: in vitro ADME; settings: human, Caco-2, Caco2 cells, pH 7.4
Excerpt: The determination of the permeability in Caco2 or MDR1-MDCK cells is widely used when screening compounds to assess cell permeability, intestinal drug transport and predict absorption rates and to ascertain if a compound might be a Pgp substrate and have cross the blood brain barrier. […] Comparison of the apical to basal (A-B) and basal to apical (B-A) values show if a compound is actively effluxed out the cells and if it is a Pgp substrate. […] Briefly, cell permeability and transport mechanisms in Caco-2 and MDR1-MDCK monolayers experiments were performed in triplicate in the apical-to-basolateral and basolateral-to-apical direction using Transwell wells containing either Caco-2 or MDR1-MDCK monolayers. A modified Hanks buffer pH 7.4 was used in both reservoir and receiver wells with the addition of 1% BSA in the receiver side. Confluent monolayers were used and their integrity was verified using reference compounds (Atenolol as a low permeability reference compound and Propanolol as a high permeability reference compound). A sample in the basolateral and apical sides was taken after 2 hours and the concentration measured by LC/MS-MS.

Pharmacokinetics in mice = format: in vivo, Balbc mice
Method: The pharmacokinetic parameters for several compounds were determined in mice following IV (intravenous), IP (intraperitoneal), or PO (per os) administration, as well as in rats and dogs. A typical study design includes six Balbc male mice 7 to 8 weeks old. For instance, a dose of 10 mg/kg was administered IV using a 5% DMS0/90% Captisol (20% in water) solution or other pharmaceutically acceptable parenteral and oral formulations. Blood samples were collected at different intervals. Plasma samples were extracted and analyzed using an LC-MS/MS method. Similar protocols were used for the rats (Sprague Dawley rats) or dogs (beagles) PK studies; in the case of dogs PK studies, the number of animals per group was three.
PFK-065 was dosed at 10 mg/kg in male Balbc mice; PFK-095 was dosed at 10 mg/kg in male Sprague Dawley rats; and PFK-112 dosed at 6 mg/kg in male beagle dogs.

PFKFB3 = molecular target: T1, PFKFB3 (Homo sapiens, UniProt Q16875); experiment: Inhibition of recombinant PFKFB3 kinase activity (ADP Glow assay); format: biochemical; settings: 250 nM analog concentration; read-out: % Inhibition of PFKFB3 Enzymatic Activity
T1 construct: GST
T1 sequence (Q16875 whole entry, species assumed): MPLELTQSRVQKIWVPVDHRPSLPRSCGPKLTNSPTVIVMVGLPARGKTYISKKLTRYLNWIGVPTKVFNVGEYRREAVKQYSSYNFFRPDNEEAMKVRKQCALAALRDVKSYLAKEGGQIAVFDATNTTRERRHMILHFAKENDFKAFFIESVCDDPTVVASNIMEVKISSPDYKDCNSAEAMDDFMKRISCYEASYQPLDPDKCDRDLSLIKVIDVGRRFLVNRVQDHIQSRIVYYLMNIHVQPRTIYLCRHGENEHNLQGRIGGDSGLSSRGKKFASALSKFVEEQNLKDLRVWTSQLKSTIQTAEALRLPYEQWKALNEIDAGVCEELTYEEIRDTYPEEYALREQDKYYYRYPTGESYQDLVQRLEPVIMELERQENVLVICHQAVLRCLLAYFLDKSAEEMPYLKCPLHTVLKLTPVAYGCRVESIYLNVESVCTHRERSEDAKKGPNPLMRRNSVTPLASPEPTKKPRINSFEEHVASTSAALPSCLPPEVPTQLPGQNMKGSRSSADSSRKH
Method: PFKFB3 was prepared by expression in E. coli and purified by GST column and column chromatography. […] The recombinant protein was pure and active as determined by the results of a kinase activity assay commercially available (such as ADP Glow® assay, […]). The same assay was used to determine the inhibition of the protein and the results are shown in Table 5 below (IC50 values or percent inhibition at a fixed concentration). Results confirmed that the compounds of the invention have low nanomolar IC50 values, interacting with PFKFB3 and inhibiting its enzymatic activity.

[2] = Microsomal stability in human liver microsomes; format: in vitro ADME
Method: Microsomal stability in vitro in different biologic media (liver microsomes, S9 fraction, hepatocytes) and species is ascertained to evaluate the rate at which a compound undergoes metabolism in the experimental in vitro conditions. Results for some compounds of the invention after a 60 minutes incubation period in human liver microsomes are shown in the Table 6 below. […] Experimental conditions are briefly described here: the stability in human liver microsomes of several compounds was done over […] at 37° C. using pooled mixed gender human liver microsomes. These liver microsomes were prepared at 1.0 mg/ml of microsomal protein in a 100 mM potassium phosphate pH 7.4 buffer with 1 mM NADPH. The media was incubated at 37° C. with the compound in solution in DMSO. The concentration of the compound was followed by LC/MS-MS as a function of time. Samples were assayed at t=0, 15, 30, and 60 minutes. Testosterone was used as a positive control. The same experiment was performed with mouse, rat or dog liver microsomes instead of human liver microsomes.

Jurkat cells = experiment: Inhibition of 14C-2-deoxyglucose uptake; format: cell-based; settings: Homo sapiens, 3 hours
Method: Inhibition of PFKFB3 results in inhibiting glycolysis. Several feedback or feedforward activation and inhibition mechanisms exist so that, by a feedback mechanism, inhibiting the activity of PFKFB3 may inhibit glucose uptake by cells. An assay was developed to determine if there was inhibition of glucose uptake following exposure to the compounds on the invention. Briefly, Jurkat cells were plated at 1×10^5/mL in RPM′ 1640 supplemented with 10% fetal bovine serum and 50 μg/mL gentamicin sulfate. Cells were immediately treated with vehicle or 5 μmol/L of the compound of the invention for 3 hours and subsequently placed in glucose-free RPMI 1640 for 30 min. ^14C-2-deoxyglucose (0.25 μCi/mL; Perkin Elmer) was added for an additional 60 min and cells were then washed three with ice-cold RPMI 1640 containing no glucose. Cell lysates were collected in 500 μL of 0.1% SDS, and scintillation counts (counts/min) were measured on 400 μL of lysate. Counts were normalized to protein concentration.

[3] = Solubility in solvents and excipients, 1 hour at room temperature, HPLC; format: physicochemical; settings: thermodynamic from solid
Method: Chemical properties of the compounds of the invention were investigated, including the solubility in several solvents and pharmaceutically accepted excipients. […] Briefly, selected compounds of the invention are dissolved in a small volume of the solvents/excipients of interest at room temperature over 1 hour in typically 1 ml and the concentration is measured by HPLC after filtration.

[4] = mouse, plasma, IV 10 mg/kg, male Balbc mice
[5] = 60 min incubation, 1.0 mg/ml microsomal protein, 1 mM NADPH, 37° C.
[6] = aqueous with cosolvent or surfactant or cyclodextrin, Cre:EtOH:Saline 5:5:90 mixture, 1 hour at room temperature, read-out: Solubility Cre:EtOH:Saline
[7] = ethanol, organic solvent or mixture, EtOH, 1 hour at room temperature, read-out: Solubility EtOH
[8] = organic solvent or mixture, 1:1 cremophor EL-P:ethanol mixture, 1 hour at room temperature, read-out: Solubility Cre:EtOH
[9] = organic solvent or mixture, Acetone, 1 hour at room temperature, read-out: Solubility Acetone
[10] = organic solvent or mixture, Cremophor, 1 hour at room temperature, read-out: Solubility Cremophor
[11] = organic solvent or mixture, DCM, 1 hour at room temperature, read-out: Solubility DCM
[12] = organic solvent or mixture, Tween 80, 1 hour at room temperature, read-out: Solubility Tween 80
[13] = organic solvent or mixture, Tween80:EtOH 6:4 mixture, 1 hour at room temperature, read-out: Solubility Twee80:EtOH

O=C(c1ccccc1)c1cc2c(ccc3ccccc32)[nH]1 [ACT-PFK-065, (3H-Benzo[e]indol-2-yl)-phenyl-methanone]
IC50 (Calu-6): 267 nM
IC50 (Jurkat): 775 nM
IC50 (NCI-H82): 283 nM
IC50 (MDA-MB-231): 625 nM
IC50 (HCT-116): 1310 nM
IC50 (U937): 165 nM
Papp A→B at 2 h ([1]; apical to basal): 10.3 ×10⁻⁶ cm/s
Papp B→A at 2 h ([1]; basal to apical): 5.9 ×10⁻⁶ cm/s
T1/2b (Pharmacokinetics in mice; IV 10 mg/kg, male Balbc mice): 2.1 h
AUC(0-inf) (Pharmacokinetics in mice; [4]): 2630 ng·h/mL
Cmax (Pharmacokinetics in mice; [4]): 4110 ng/mL
Vd (Pharmacokinetics in mice; [4]): 11.2 L/kg
% F (from PO group) (Pharmacokinetics in mice; oral bioavailability, Balbc mice, PO 20 mg/kg vs IV 10 mg/kg): 25%
inhibition at 0.25 µM (PFKFB3): 13.5%
HLM, Mean metabolized (%) ([2]; 0 min): 0.0%
HLM, Mean metabolized (%) [2, 5]: 93%

COc1ccccc1C(=O)c1cc2c(ccc3ccccc32)[nH]1 [ACT-PFK-098, (3H-Benzo[e]indol-2-yl)-(2-methoxy-phenyl)-methanone]
IC50 (Calu-6): 220 nM
IC50 (Jurkat): 405 nM
IC50 (NCI-H82): 210 nM
IC50 (HCT-116): 490 nM
IC50 (U937): 40 nM
inhibition at 5 µM (Jurkat cells): 25%
solubility at 1 h [3, 6]: 2.4 mg/mL (≈ 7.96 mM)
solubility at 1 h [3, 7]: 4.6 mg/mL (≈ 15.3 mM)
solubility at 1 h [3, 8]: 29 mg/mL (≈ 96.2 mM)
solubility at 1 h [3, 9]: 9.3 mg/mL (≈ 30.9 mM)
solubility at 1 h [3, 10]: 30.2 mg/mL (≈ 100 mM)
solubility at 1 h [3, 11]: 10.4 mg/mL (≈ 34.5 mM)
solubility at 1 h [3, 12]: 37 mg/mL (≈ 123 mM)
solubility at 1 h [3, 13]: 32.8 mg/mL (≈ 109 mM)

COc1cc(C(=O)c2cc3c(ccc4ccccc43)[nH]2)ccc1O [ACT-PFK-108, (3H-Benzo[e]indol-2-yl)-(4-hydroxy-3-methoxylthenyl)-methanone]
IC50 (Calu-6): 360 nM
IC50 (Jurkat): 545 nM
IC50 (NCI-H82): 360 nM
IC50 (MDA-MB-231): 90 nM
IC50 (HCT-116): 475 nM
IC50 (U937): 205 nM
inhibition at 5 µM (Jurkat cells): 2%
HLM, Mean metabolized (%) ([2]; 0 min): 0.0%
HLM, Mean metabolized (%) [2, 5]: 73.3%
solubility at 1 h [3, 6]: 4.8 mg/mL (≈ 15.1 mM)
solubility at 1 h [3, 7]: 9.9 mg/mL (≈ 31.2 mM)
solubility at 1 h [3, 8]: 78.1 mg/mL (≈ 246 mM)
solubility at 1 h [3, 9]: 12.8 mg/mL (≈ 40.3 mM)
solubility at 1 h [3, 10]: 37.6 mg/mL (≈ 118 mM)
solubility at 1 h [3, 11]: 11.1 mg/mL (≈ 35 mM)
solubility at 1 h [3, 12]: 16.9 mg/mL (≈ 53.3 mM)
solubility at 1 h [3, 13]: 10.3 mg/mL (≈ 32.5 mM)

COc1cc(C(=O)c2cc3c(ccc4ccccc43)[nH]2)ccc1OCc1ccccc1 [ACT-PFK-109, (3H-Benzo[e]indol-2-yl)-(4-benzyloxy-3-methoxy-phenyl)-methanone]
IC50 (Calu-6): 64500 nM
IC50 (Jurkat): > 100000 nM
IC50 (NCI-H82): > 100000 nM
IC50 (MDA-MB-231): > 100000 nM
IC50 (HCT-116): > 100000 nM
IC50 (U937): > 100000 nM
inhibition at 5 µM (Jurkat cells): 42%

COc1cccc(C(=O)c2cc3c(cc(F)c4ccccc43)[nH]2)c1 [ACT-PFK-116, (5-Fluoro-3H-benzo[e]indol-2-yl)-(3-methoxy-phenyl)-methanone]
IC50 (Calu-6): 80 nM
IC50 (Jurkat): 125 nM
IC50 (NCI-H82): 205 nM
IC50 (MDA-MB-231): 563 nM
IC50 (HCT-116): 235 nM
IC50 (U937): 30 nM
inhibition at 5 µM (Jurkat cells): 0%
inhibition at 0.25 µM (PFKFB3): 34.2%
HLM, Mean metabolized (%) ([2]; 0 min): 0.0%
HLM, Mean metabolized (%) [2, 5]: 45.8%
solubility at 1 h [3, 6]: 0.7 mg/mL (≈ 2.19 mM)
solubility at 1 h [3, 7]: 1.3 mg/mL (≈ 4.07 mM)
solubility at 1 h [3, 8]: 8.6 mg/mL (≈ 26.9 mM)
solubility at 1 h [3, 9]: 6.2 mg/mL (≈ 19.4 mM)
solubility at 1 h [3, 10]: 14.4 mg/mL (≈ 45.1 mM)
solubility at 1 h [3, 11]: 6 mg/mL (≈ 18.8 mM)
solubility at 1 h [3, 12]: 15.5 mg/mL (≈ 48.5 mM)
solubility at 1 h [3, 13]: 10.2 mg/mL (≈ 31.9 mM)

COc1cccc(C(=O)c2cc3c(ccc4ccccc43)[nH]2)c1 [ACT-PFK-096, (3H-Benzo[e]indol-2-yl)-(3-methoxy-phenyl)-methanone]
IC50 (Calu-6): 20 nM
IC50 (Jurkat): 1500 nM
IC50 (NCI-H82): 155 nM
IC50 (HCT-116): 695 nM
IC50 (U937): 14 nM
inhibition at 5 µM (Jurkat cells): 29%
inhibition at 0.25 µM (PFKFB3): 0%
HLM, Mean metabolized (%) ([2]; 0 min): 0.0%
HLM, Mean metabolized (%) [2, 5]: 99%
solubility at 1 h [3, 6]: 1.7 mg/mL (≈ 5.64 mM)
solubility at 1 h [3, 7]: 2.8 mg/mL (≈ 9.29 mM)
solubility at 1 h [3, 8]: 29.7 mg/mL (≈ 98.6 mM)
solubility at 1 h [3, 9]: 25.8 mg/mL (≈ 85.6 mM)
solubility at 1 h [3, 10]: 1.2 mg/mL (≈ 3.98 mM)
solubility at 1 h [3, 11]: 8.9 mg/mL (≈ 29.5 mM)
solubility at 1 h [3, 12]: 1.8 mg/mL (≈ 5.97 mM)
solubility at 1 h [3, 13]: 18.7 mg/mL (≈ 62.1 mM)

— US20130059879A1, “Small Molecule Inhibitors of PFKFB3 and Glycolytic Flux and Their Methods of Use as Anti-Cancer Therapeutics” (UNIVERSITY OF LOUISVILLE RESEARCH FOUNDATION, INC., priority 2010, published 2013)
